The Vss is the apparent volume that relates the amount in the body to the concentration in plasma or blood. Higher therefore signals extensive tissue distribution.

We go through seven compounds from paper PMC7429263 (ACS infectious diseases, 2020).

For series [1], the system named is two VanA VRE strains. The note with it: same two VanA VRE strains; cited from earlier work.
In series [2] the test system is VanA VRE E. faecalis BM 4166 and E. faecium ATCC BAA-2317. Conditions: 3 even at 100 μM; cited from earlier work.
Series [3] deals with VanA E. faecium ATCC BAA-2317. Description: standard microdilution antimicrobial assay. In kind it is cell-based. (In general: Dilution methods test growth across graded concentrations, often in twofold steps.)
A further series concerns VanA E. faecalis BM 4166. Description: standard microdilution antimicrobial assay. In kind it is cell-based.
Series [4] deals with VanA VRE E. faecalis BM 4166 and E. faecium ATCC BAA-2317. The experiment in a line: bacteria cell membrane permeability assay. The note with it: 10 μM added at 5 min.
For series [5], the system named is VanA VRE, 4 strains. Conditions: resistant pathogens with D-Ala-D-Lac cell wall precursor; cited from earlier work.
In a further series the test system is VanA E. faecium TX2465. Description: standard microdilution antimicrobial assay. It counts as cell-based. Conditions: Enterococcus faecium.
Series [6] concerns Sensitive S. aureus ATCC 25923. The experiment in a line: standard microdilution antimicrobial assay. It counts as cell-based. The note with it: Staphylococcus aureus, ATCC25923.
The next series is described as follows: in vivo PK in mice. Conditions: iv.
For series [7], the system named is VanA VRE E. faecalis BM 4166 and E. faecium ATCC BAA-2317. Description: microdilution antimicrobial assay with added LTA or other additives. In kind it is cell-based. Conditions: 100 μg/mL LTA.
The test system of series [8] is VanA VRE E. faecium ATCC BAA-2317. It counts as cell-based. The note with it: ATCC BAA-2317, +LTA 100 μg/mL.
The test system of series [9] is VanA VRE E. faecalis BM 4166. Description: microbe, parasite or virus in culture. Conditions: Enterococcus faecalis.
Series [10] concerns VanB E. faecalis ATCC 51299. Description: standard microdilution antimicrobial assay. Conditions: Enterococcus faecalis, ATCC51299. In kind it is cell-based.
The test system of series [11] is VanA VRE E. faecalis BM 4166. Conditions: BM 4166, +LTA 100 μg/mL.
Series [12] deals with MRSA S. aureus ATCC 43300. Description: standard microdilution antimicrobial assay. In kind it is cell-based. The note with it: Staphylococcus aureus, ATCC43300|MRSA.
For series [13] the following is noted: D-Ala-D-Ala to D-Ala-D-Lac remodeling; cited from earlier work.
The subject of series [14] is VanA VRSA strain (VRS2), S. aureus. Conditions: cited from earlier work.
For series [15], the system named is two VanA VRE strains. Description: multi-passage resistance development assay. It counts as cell-based. Conditions: Enterococcus.
The test system of series [16] is VanA VRE, 4 strains. Description: standard microdilution assay, panel of vancomycin-resistant organisms. It counts as cell-based, E. faecalis, E. faecium.

Molecules are shown by their SMILES. Values after ≈ are worked out from the molar mass of the structure shown. Read-outs that look alike come from different tables or passages of the source.

Consider `CC(=O)NC[C@H]1CN(c2ccc(N3CCOCC3)c(F)c2)C(=O)O1` [linezolid], for which, in the series with two VanA VRE strains [1], the “rate of resistance emergence, in words” value is “raise resistance more rapidly and in a more pronounced manner than either 2 or 5”.

Take `CN(C)c1cc(NC(=O)CNC(C)(C)C)c(O)c2c1C[C@H]1C[C@H]3[C@H](N(C)C)C(O)=C(C(N)=O)C(=O)[C@@]3(O)C(O)=C1C2=O` [tigecycline]: the “rate of resistance emergence, in words” value in the series on two VanA VRE strains [1] was “raise resistance more rapidly and in a more pronounced manner than either 2 or 5”.

For `CN[C@H](CC(C)C)C(=O)N[C@H]1C(=O)N[C@@H](CC(N)=O)C(=O)N[C@H]2C(=O)NC3C(=O)N[C@H](C(=O)N[C@H](C(=O)NCCC[N+](C)(C)C)c4cc(O)cc(O)c4-c4cc3ccc4O)[C@H](O)c3ccc(c(Cl)c3)Oc3cc2cc(c3OC2OC(CO)C(O)[C@H](O)[C@@H]2O[C@H]2CC(C)(N)[C@H](O)[C@H](C)O2)Oc2ccc(cc2Cl)[C@H]1O` (stereo partly shown) [C1-vancomycin (3)], the “induced cell membrane permeabilization, in words” value in [2] was “weaker”. Moreover, the MIC in series [3] came out at 31 µg/mL.

Turning to `CN[C@H](CC(C)C)C(=O)N[C@H]1C(=O)N[C@@H](CC(N)=O)C(=O)N[C@H]2C(=O)N[C@H]3C(=O)N[C@H](C(=O)N[C@H](C(=O)N[C@@H](CCCNC(=N)N)C(=O)O)c4cc(O)cc(O)c4-c4cc3ccc4O)[C@H](O)c3ccc(c(Cl)c3)Oc3cc2cc(c3OC2OC(CO)C(O)[C@H](O)C2O[C@H]2CC(C)(N)[C@H](O)[C@H](C)O2)Oc2ccc(cc2Cl)[C@H]1O` (stereo partly shown) [Arg-vancomycin (11)], the MIC (against VanA E. faecalis BM 4166 (VanA E. faecalis BM 4166); in series [3]) was 63 µg/mL (≈ 39.2 µM) each time.

`CCCCCCCCCC(=O)N[C@@H](Cc1c[nH]c2ccccc12)C(=O)N[C@H](CC(N)=O)C(=O)N[C@@H](CC(=O)O)C(=O)N[C@@H]1C(=O)NCC(=O)N[C@@H](CCCN)C(=O)N[C@@H](CC(=O)O)C(=O)N[C@H](C)C(=O)N[C@@H](CC(=O)O)C(=O)NCC(=O)N[C@H](CO)C(=O)N[C@@H]([C@H](C)CC(=O)O)C(=O)N[C@@H](CC(=O)c2ccccc2N)C(=O)O[C@@H]1C` [daptomycin]: the “rate of resistance emergence, in words” value in the series on two VanA VRE strains [1] was “raise resistance more rapidly and in a more pronounced manner than either 2 or 5”.

On to `CN[C@H](CC(C)C)C(=O)N[C@H]1C(=O)N[C@@H](CC(N)=O)C(=O)N[C@H]2C(=O)N[C@H]3C(=O)N[C@H](C(=O)N[C@H](C(=O)O)c4cc(O)cc(O)c4-c4cc3ccc4O)[C@H](O)c3ccc(c(Cl)c3)Oc3cc2cc(c3O[C@@H]2O[C@H](CO)[C@@H](O)[C@H](O)[C@H]2O[C@H]2C[C@](C)(N)[C@H](O)[C@H](C)O2)Oc2ccc(cc2Cl)[C@H]1O` [vancomycin (1), vancomycin], for which the “induced cell membrane permeabilization, in words” value in [4] was “no permeabilization”. Moreover, the “reduction of antimicrobial potency” value in the series with VanA VRE, 4 strains [5] is recorded as 1000 fold. The MIC with VanA E. faecalis BM 4166 (Enterococcus faecalis) came out at 250 µg/mL (≈ 173 µM); against VanA E. faecium TX2465, 250 µg/mL (≈ 173 µM); in series [6] it was 0.5 µg/mL (≈ 0.345 µM); in series [8], 250 µg/mL (≈ 173 µM); in [9], 250 µg/mL (≈ 173 µM); in series [10], 8 µg/mL (≈ 5.52 µM). Also, the values for the MIC (in series [11]; in series [12]; with two VanA VRE strains [15]) were 250 µg/mL (≈ 173 µM), 0.5 µg/mL (≈ 0.345 µM) and 250 µg/mL (≈ 173 µM), respectively. Besides, the “dose proportionality of PK, in words” value in “in vivo PK in mice” is given as “well behaved dose proportional PK across all parameters”. Moreover, the “decrease of antimicrobial activity with added LTA” value in series [7] is “no difference”. Moreover, the “reduction of binding affinity” value in series [13] is recorded as 1000 fold. Besides, the “activity in the thigh infection model, in words” value in series [14] is “inactive”.

For `CN[C@H](CC(C)C)C(=O)N[C@H]1C(=O)N[C@@H](CC(N)=O)C(=O)N[C@H]2C(=O)NC3C(=O)N[C@H](C(=O)N[C@H](C(=O)NCCC[N+](C)(C)C)c4cc(O)cc(O)c4-c4cc3ccc4O)[C@H](O)c3ccc(c(Cl)c3)Oc3cc2cc(c3OC2OC(CO)C(O)[C@H](O)[C@@H]2O[C@H]2CC(C)(NCc3ccc(-c4ccc(Cl)cc4)cc3)[C@H](O)[C@H](C)O2)Oc2ccc(cc2Cl)[C@H]1O` (stereo partly shown) [C1-CBP-vancomycin (4)], the “induced cell membrane permeabilization, in words” value in series [2] was “pronounced membrane permeabilization”. Also, the “improvement in antimicrobial potency compared with vancomycin” value in the series with VanA VRE, 4 strains [16] was “ca. 1000 fold”. Further, the MIC in series [3] is 0.3 µg/mL. In “in vivo PK in mice” (10 mg/kg), the AUC came out at 48.4 Mg-h/mL, the CL was 2 mL/min/kg, the Cmax worked out at 14.5 Mg/mL and the Vss amounted to 0.64 L/kg. In the series “in vivo PK in mice” (10 mg/kg), this compound came in with a t1/2 of 5.1 h and a tmax of 4.8 min.
